Legend:
Format in all cases: cell-based
Klebsiella pneumonia = assay: MIC against Gram-negative bacteria: Klebsiella pneumonia; details: 5×10^5 CFU/mL; for MIC K. pneumonia: two-fold serial dilution
Outline: (§1)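 MIC, the lowest recombinant protein concentration giving no bacterial growth, found by two-fold serial dilution of human EGF-domain proteins in triplicate. Inoculum 5×10^5 CFU/mL in LB from cultures at McFarland 0.5; plates incubated at 37° C, 175 rpm shaking.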

Pseudomonas aeruginosa = assay: MIC against Gram-negative bacteria: Pseudomonas aeruginosa; details: 5×10^5 CFU/mL; for MIC P. aeruginosa: two-fold serial dilution
Outline: as §1

Serratia marcescens = assay: MIC against Gram-negative bacteria: Serratia marcescens; details: 5×10^5 CFU/mL; for MIC S. marcescens: two-fold serial dilution
Outline: as §1

Proteus vulgaris = assay: MIC against Gram-negative bacteria: Proteus vulgaris; details: 5×10^5 CFU/mL; for MIC P. vulgaris: two-fold serial dilution
Outline: as §1

E. coli DH5α = assay: Antibacterial activity: MIC and growth curve against E. coli DH5α in 96-well plate; details: minimal inhibitory concentration against E. coli DH5α; 96-well plate, 5×10^5 CFU/mL, 37° C., judged after 8 h
Outline: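 MIC taken as lowest protein level with no bacterial growth, tracked by A600 every 30 min during 37 °C, 175 rpm culture. Two-fold protein series 50-12.5 μg/mL final, triplicate wells, against 5×10^5 CFU/mL of LB-washed mid-log cells.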

E. coli BL21 = assay: MIC against Gram-negative bacteria: E. coli BL21; details: 5×10^5 CFU/mL; for MIC E. coli BL21: two-fold serial dilution
Outline: as §1

Citrobacter diversus = assay: MIC against Gram-negative bacteria: Citrobacter diversus; details: 5×10^5 CFU/mL; for MIC C. diversus: two-fold serial dilution
Outline: as §1

Moraxella catarrhalis = assay: MIC against Gram-negative bacteria: Moraxella catarrhalis; details: 5×10^5 CFU/mL; for MIC M. catarrhalis: two-fold serial dilution
Outline: as §1

Proteus mirabilis = assay: MIC against Gram-negative bacteria: Proteus mirabilis; details: 5×10^5 CFU/mL; for MIC P. mirabilis: two-fold serial dilution
Outline: as §1

Enterobacter cloacae = assay: MIC against Gram-negative bacteria: Enterobacter cloacae; details: 5×10^5 CFU/mL; for MIC E. cloacae: two-fold serial dilution
Outline: as §1

Aeromonas hydrophila = assay: MIC against Gram-negative bacteria: Aeromonas hydrophila; details: 5×10^5 CFU/mL; for MIC A. hydrophila: two-fold serial dilution
Outline: as §1

[1] = E. coli BL21, 10 h cultivation at 37° C.
[2] = K. pneumonia, 10 h cultivation at 37° C.
[3] = P. aeruginosa, 10 h cultivation at 37° C.
[4] = S. marcescens, 10 h cultivation at 37° C.
[5] = P. vulgaris, 10 h cultivation at 37° C.
[6] = C. diversus, 10 h cultivation at 37° C.
[7] = M. catarrhalis, 10 h cultivation at 37° C.
[8] = P. mirabilis, 10 h cultivation at 37° C.
[9] = E. cloacae, 10 h cultivation at 37° C.
[10] = A. hydrophila, 10 h cultivation at 37° C.

Substance: PRT1397 (PMNQCIDPSCGGHGSCIDGNCVCSAGYKGEHCE; listed as Homo sapiens)
- MIC against K. pneumonia (Klebsiella pneumonia; Klebsiella pneumonia, 10 h cultivation at 37° C.): 50 µg/mL
- MIC against P. aeruginosa (Pseudomonas aeruginosa; Pseudomonas aeruginosa, 10 h cultivation at 37° C.): 12.5 µg/mL
- MIC against S. marcescens (Serratia marcescens; Serratia marcescens, 10 h cultivation at 37° C.): 25 µg/mL
- MIC against P. vulgaris (Proteus vulgaris; Proteus vulgaris, 10 h cultivation at 37° C.): 50 µg/mL
- MIC (E. coli DH5α): 50 µg/mL
- MIC against E. coli BL21 (E. coli BL21; [1]): 25 µg/mL
- MIC against C. diversus (Citrobacter diversus; Citrobacter diversus, 10 h cultivation at 37° C.): 25 µg/mL
- MIC against M. catarrhalis (Moraxella catarrhalis; Moraxella catarrhalis, 10 h cultivation at 37° C.): 12.5 µg/mL
- MIC against P. mirabilis (Proteus mirabilis; Proteus mirabilis, 10 h cultivation at 37° C.): 25 µg/mL
- MIC against E. cloacae (Enterobacter cloacae; Enterobacter cloacae, 10 h cultivation at 37° C.): 12.5 µg/mL
- MIC against A. hydrophila (Aeromonas hydrophila; Aeromonas hydrophila, 10 h cultivation at 37° C.): 50 µg/mL

Substance: PRT1165 (NRAICRQGCSPKHGSCKLPGDCRCQYGWQGLYCD; listed as Homo sapiens)
- MIC K. pneumonia (Klebsiella pneumonia; 10 h cultivation at 37° C.): 25 µg/mL
- MIC P. aeruginosa (Pseudomonas aeruginosa; 10 h cultivation at 37° C.): 12.5 µg/mL
- MIC S. marcescens (Serratia marcescens; 10 h cultivation at 37° C.): 12.5 µg/mL
- MIC P. vulgaris (Proteus vulgaris; 10 h cultivation at 37° C.): 25 µg/mL
- MIC (E. coli DH5α): 50 µg/mL
- MIC E. coli BL21 (E. coli BL21; 10 h cultivation at 37° C.): 25 µg/mL
- MIC C. diversus (Citrobacter diversus; 10 h cultivation at 37° C.): 12.5 µg/mL
- MIC M. catarrhalis (Moraxella catarrhalis; 10 h cultivation at 37° C.): 25 µg/mL
- MIC P. mirabilis (Proteus mirabilis; 10 h cultivation at 37° C.): 50 µg/mL
- MIC E. cloacae (Enterobacter cloacae; 10 h cultivation at 37° C.): 50 µg/mL
- MIC A. hydrophila (Aeromonas hydrophila; 10 h cultivation at 37° C.): 25 µg/mL

Substance: PRT46 (CQCNGHSTCINNNVCEQCKNLTTGKQCQDCMPGYYGDPTNGGQCTA; listed as Homo sapiens)
- MIC (μg/mL) K. pneumonia (Klebsiella pneumonia; Klebsiella pneumonia, 96-well plate, 37° C., 10 h): 12.5 µg/mL
- MIC (μg/mL) P. aeruginosa (Pseudomonas aeruginosa; Pseudomonas aeruginosa, 96-well plate, 37° C., 10 h): 50 µg/mL
- MIC (μg/mL) S. marcescens (Serratia marcescens; Serratia marcescens, 96-well plate, 37° C., 10 h): 100 µg/mL
- MIC (μg/mL) P. vulgaris (Proteus vulgaris; Proteus vulgaris, 96-well plate, 37° C., 10 h): 12.5 µg/mL
- MIC (E. coli DH5α): 25 µg/mL
- MIC (μg/mL) E. coli BL21 (E. coli BL21; E. coli BL21, 96-well plate, 37° C., 10 h): 12.5 µg/mL
- MIC (μg/mL) C. diversus (Citrobacter diversus; Citrobacter diversus, 96-well plate, 37° C., 10 h): 12.5 µg/mL
- MIC (μg/mL) M. catarrhalis (Moraxella catarrhalis; Moraxella catarrhalis, 96-well plate, 37° C., 10 h): 12.5 µg/mL
- MIC (μg/mL) P. mirabilis (Proteus mirabilis; Proteus mirabilis, 96-well plate, 37° C., 10 h): 25 µg/mL
- MIC (μg/mL) E. cloacae (Enterobacter cloacae; Enterobacter cloacae, 96-well plate, 37° C., 10 h): 25 µg/mL
- MIC (μg/mL) A. hydrophila (Aeromonas hydrophila; Aeromonas hydrophila, 96-well plate, 37° C., 10 h): 12.5 µg/mL

Substance: PRT1176 (NIDDCSPNNCSHGGTCQDLVNGFKCVCPPQWTGKTCQ; listed as Homo sapiens)
- MIC K. pneumonia (Klebsiella pneumonia; 10 h cultivation at 37° C.): 50 µg/mL
- MIC P. aeruginosa (Pseudomonas aeruginosa; 10 h cultivation at 37° C.): 12.5 µg/mL
- MIC S. marcescens (Serratia marcescens; 10 h cultivation at 37° C.): 12.5 µg/mL
- MIC P. vulgaris (Proteus vulgaris; 10 h cultivation at 37° C.): 25 µg/mL
- MIC (E. coli DH5α): 12.5 µg/mL
- MIC E. coli BL21 (E. coli BL21; 10 h cultivation at 37° C.): 50 µg/mL
- MIC C. diversus (Citrobacter diversus; 10 h cultivation at 37° C.): 50 µg/mL
- MIC M. catarrhalis (Moraxella catarrhalis; 10 h cultivation at 37° C.): 12.5 µg/mL
- MIC P. mirabilis (Proteus mirabilis; 10 h cultivation at 37° C.): 50 µg/mL
- MIC E. cloacae (Enterobacter cloacae; 10 h cultivation at 37° C.): 12.5 µg/mL
- MIC A. hydrophila (Aeromonas hydrophila; 10 h cultivation at 37° C.): 25 µg/mL

Substance: PRT524 (CNCSRRGTIEAAMPECDRDSGQCRCKPRITGRQCDRCASGFYRFPECVP; listed as Homo sapiens)
- MIC against K. pneumonia (Klebsiella pneumonia; 96-well plate, 37° C., 10 h): 25 µg/mL
- MIC against P. aeruginosa (Pseudomonas aeruginosa; 96-well plate, 37° C., 10 h): 12.5 µg/mL
- MIC against S. marcescens (Serratia marcescens; 96-well plate, 37° C., 10 h): 50 µg/mL
- MIC against P. vulgaris (Proteus vulgaris; 96-well plate, 37° C., 10 h): 25 µg/mL
- MIC (E. coli DH5α): 12.5 µg/mL
- MIC against E. coli BL21 (E. coli BL21; 96-well plate, 37° C., 10 h): 12.5 µg/mL
- MIC against C. diversus (Citrobacter diversus; 96-well plate, 37° C., 10 h): 100 µg/mL
- MIC against M. catarrhalis (Moraxella catarrhalis; 96-well plate, 37° C., 10 h): 25 µg/mL
- MIC against P. mirabilis (Proteus mirabilis; 96-well plate, 37° C., 10 h): 12.5 µg/mL
- MIC against E. cloacae (Enterobacter cloacae; 96-well plate, 37° C., 10 h): 12.5 µg/mL
- MIC against A. hydrophila (Aeromonas hydrophila; 96-well plate, 37° C., 10 h): 25 µg/mL

Substance: PRT796 (SGDFCIPLCTEECVHGRCVSPDTCHCEPGWGGPDCS; listed as Homo sapiens)
- MIC (μg/mL) K. pneumonia (Klebsiella pneumonia; [2]): 50 µg/mL
- MIC (μg/mL) P. aeruginosa (Pseudomonas aeruginosa; [3]): 12.5 µg/mL
- MIC (μg/mL) S. marcescens (Serratia marcescens; [4]): 50 µg/mL
- MIC (μg/mL) P. vulgaris (Proteus vulgaris; [5]): 50 µg/mL
- MIC (E. coli DH5α): 25 µg/mL
- MIC (μg/mL) E. coli BL21 (E. coli BL21; [1]): 50 µg/mL
- MIC (μg/mL) C. diversus (Citrobacter diversus; [6]): 5 µg/mL
- MIC (μg/mL) M. catarrhalis (Moraxella catarrhalis; [7]): 50 µg/mL
- MIC (μg/mL) P. mirabilis (Proteus mirabilis; [8]): 12.5 µg/mL
- MIC (μg/mL) E. cloacae (Enterobacter cloacae; [9]): 50 µg/mL
- MIC (μg/mL) A. hydrophila (Aeromonas hydrophila; [10]): 50 µg/mL

Substance: PRT215 (YTQCTDGYEWDPVRQQCKDIDECDIVPDACKGGMKCVNHYGGYLCL; listed as Homo sapiens)
- MIC (μg/mL) K. pneumonia (Klebsiella pneumonia; [2]): 100 µg/mL
- MIC (μg/mL) P. aeruginosa (Pseudomonas aeruginosa; [3]): 25 µg/mL
- MIC (μg/mL) S. marcescens (Serratia marcescens; [4]): 12.5 µg/mL
- MIC (μg/mL) P. vulgaris (Proteus vulgaris; [5]): 12.5 µg/mL
- MIC (E. coli DH5α): 25 µg/mL
- MIC (μg/mL) E. coli BL21 (E. coli BL21; [1]): 12.5 µg/mL
- MIC (μg/mL) C. diversus (Citrobacter diversus; [6]): 25 µg/mL
- MIC (μg/mL) M. catarrhalis (Moraxella catarrhalis; [7]): 12.5 µg/mL
- MIC (μg/mL) P. mirabilis (Proteus mirabilis; [8]): 25 µg/mL
- MIC (μg/mL) E. cloacae (Enterobacter cloacae; [9]): 25 µg/mL
- MIC (μg/mL) A. hydrophila (Aeromonas hydrophila; [10]): 12.5 µg/mL

From patent US9833497B2, “Human originated EGF domain proteins and use of the same” (CHENGDU SOURCEBIO LIMITED-LIABILITY COMPANY, priority 2013, dated 2017)
